# Test results taken from PMC4979516, “Quinazoline-based tricyclic compounds that regulate programmed cell death, induce neuronal differentiation, and are curative in animal models for excitotoxicity and hereditary brain disease” (Cell Death Discovery, 2015).
# Several values for one entry are separate records, joined by “and”; a condition that tells them apart may be missing. Identical values can stand only once. Entries after “also recorded” stand apart in the source; their conditions may differ.
# Columns and labels:
# U118MG cells [1] = test: Mitochondrial membrane potential (JC-1) assay in U118MG cells exposed to glutamate; type: cell-based, human; conditions: 25 μM compound, 35 mM glutamate
# Source text: (§1) JC-1 was used to assay changes in Δψm, as described previously.[71],[79] Owing to charges distributed along JC-1 molecules, they pass unimpaired (charged) mitochondrial membranes and enter the mitochondrial matrix. There the J-molecules form J-aggregates, which emit at 590 nm (orange–red fluorescence). […] The monomers emit at 527 nm (green fluorescence). A decrease in the red–green fluorescence intensity ratio is an indication for mitochondrial depolarization. As a positive control, the proton ionophore carbonyl cyanide m-chlorophenylhydrazone was used as described previously.[71] Cells were collected and prepared for suspension in 10 μg/ml of JC-1 solution in PBS. After incubation at 37 °C for 30 min in the dark, the cells were washed with 0.5 ml of PBS, and the cell suspensions were analyzed with the BD FACSCalibur flow cytometer.
# [2] = system: NeuN expression in PC12 cells strain #3; test: Western blot of NeuN in PC12 strain #3; type: cell-based, rat; conditions: PC12 strain #3, versus vehicle control
# Protocol: The relative protein levels of TSPO and other proteins related to neurodifferentiation (including β-actin, NeuN, tubulin-3β), were assayed by immunoblotting with the aid electrophoresis through 12% SDS-polyacrylamide gel, according to previously described methods.[71] A priori, general protein levels were measured by the method of Bradford using BSA as a standard.[75] After electrophoresis, the gels were subjected to electrophoretic transfer to nitrocellulose membranes. Then, the membranes were blocked for 1 h in 5% non-fat milk in 62.5 mM sodium phosphate buffer, pH 7.4, containing 100 mM NaCl, and 0.1% (v/v) Tween-20 (PBS-T) and then incubated for 2 h or overnight at 4 °C with the appropriate antibodies: anti-tubulin-3β 1 : 10 000, anti-NeuN 1 : 1000, anti β-actin 1 : 15 000, and anti-TSPO 1 : 10 000.[73] After washing with TBS-T, the membranes were incubated with IgG secondary antibody linked to horseradish peroxidase (anti-rabbit IgG 1 : 20 000, anti-mouse IgG 1 : 10 000, as appropriate, from Jackson Immunologicals, West Grove, PA, USA) in TBS-T at room temperature. Binding of antibodies to the membrane was detected with the EZ-ECL-detection reagent (Biological Industries), using the ImageQuant LAS 4010 apparatus and Totallab Quant quantitative image analysis of Totallab (Newcastle upon Tyne, England).
# R6-2 mice = test: R6-2 transgenic mouse model for Huntington disease (lifespan, behavior); type: in vivo; conditions: pilot studies, s.c. daily 5 days per week; MGV-1 15 mg/kg, PK 11195 15 mg/kg, MGV-2 15 and 7.5 mg/kg
# Source text: Huntington disease in humans is a hereditary disease including neurodegeneration leading to degradation in motor performance, continual involuntary movements, tremors, cardiovascular and respiratory impairments, and finally leading to death of the patients having the disease.[88] For this study, R6-2 mice (~120 CAG repeats B6CBA-Tg(HDexon1)62 Gpb/3J) mice were used as a transgenic mouse model for Huntington disease. For this purpose, mice obtained from the Jackson Laboratory were bred. In particular, males hemizygous for Tg(HDexon1)62 Gpb, and females from the wild-type background strain B6CBAF1/J, were bred according to the protocol of Jackson Laboratory.
# For tests of drug efficacy, male offspring hemizygous for Tg(HDexon1)62 Gpb were used to determine drug effect on lifespan, motor activity, and general well-being of the animals. Drug treatment for this study consisted of daily (5 continuous days per week) subcutaneous injections in the neck area of mice with 20 μl of: the drug vehicle DMSO (vehicle control), 2-Cl-MGV-1(7.5 mg/kg) and 2-Cl-MGV-2 (7.5 mg/kg). […] Quantities were used according to previous studies regarding TSPO ligands[48] and adapted depending on the findings in the course of the pilot studies. The treatments were given until the animals died a natural death. Behavioral experiments included distance covered in an open field apparatus,[89] freezing,[89] and balance on a rotor-rod.[90] Spontaneous tremor activity was evaluated using a Hamilton–Kinder sensor in a soundproof ventilated apparatus (Kinder Scientific). The assays for locomotor activity, tremors, and body weight were performed on a weekly basis, together with evaluation of the well-being of the mice. Finally, the day of death was noted. As lifespan data were most pronounced, these are presented in the present description of the results. No adverse effects of any of the drug treatments were noted, neither for specific tests, nor for general observations. Importantly, DMSO had no effect by itself as compared with naive mice or saline-injected mice with various behavioral assays.[20]
# PC12 cells = test: Collapse of mitochondrial membrane potential (JC-1) in PC12 cells; type: cell-based, rat; conditions: PC12, 50 μM MGV-1, 35 mM glutamate
# Source text: as §1
# U118MG cells [3] = test: LDH cytotoxicity assay, glutamate-induced cell death of U118MG cells; conditions: 35 mM glutamate
# Protocol: (1) For U118MG cells, glutamate at a concentration of 35 mM was applied with or without MGV-1. As discussed, glutamate levels in normal healthy brain tissue can average 15 mM, and these levels can be doubled in diseased brain tissue, whereas in cell organelles glutamate levels can be as high as 250 mM (as discussed). […] In more detail, U118MG cells were seeded, 2×10^5 cells per well of 6-well plates and 6×10^3 cells per well of 96-well plates. Twenty-four hours after seeding, U118MG cells were pretreated with MGV-1 (or one of the other compounds) at various concentrations from 0.1 nM–100 μM. Twenty-four hours after the pretreatment, the cells were exposed to 35 mM of glutamate. […] The negative control was vehicle, that is, ethanol with a final concentration of 1%. […] The positive control was exposure to 35 mM of glutamate alone (with 200 μM of glycine).
# Wells of 96-well plates were with 6000 cells per well and treated according the protocol presented above. We used the Cytotoxicity Detection Kit (LDH) (Roche Pharmacuticals) according to the manufacturer’s instructions. When cell plasma membranes are damaged, the cytoplasmic enzyme LDH is released into the medium. The amount of formazan formed is proportional to the amount of LDH released.[77] The resulting color intensity is proportional to the number of damaged cells. Absorbance at 492 nm with reference at 690 nm was measured with the Spectrophotometer Zenyth 200 (Anthos) and the results were calculated and normalized according to the formula presented by the manufacturer.
smiles,measurement,setting,value
"CN(C)C(=O)Oc1nc(-c2ccccc2)nc2ccccc12 [MGV-1, 2-phenylquinazolin-4-yl dimethylcarbamate]",Prevention of collapse of the ΔΨm induced by glutamate (JC-1),U118MG cells [1],prevention of the collapse of the ΔΨm
same,Increase of NeuN expression (western blot),[2],do not enhance NeuN expression significantly
same,Effect on behavior and lifespan of R6-2 mice,R6-2 mice,did not appear to have an effect
same,Enhancement of the incidence of collapse of the ΔΨm,PC12 cells,threefold
same,Protection against glutamate-induced cell death (LDH),"U118MG cells [3]; compound 10-100 μM, 24 h pretreatment",protect against lethal effects of glutamate; also recorded: prevented cell death induction
same,Most effective concentration for protection against cell death,U118MG cells [3]; tested 0.1 nM-100 μM,25 µM and 50 µM
